Patent US20150105252A1, “SUBSTITUTED PYRAZOLES AS HERBICIDES” (E I DU PONT DE NEMOURS AND COMPANY, priority 2013, published 2015)

Columns and labels:
[1] = tested on: chickweed; test: Test C postemergence; type: in vivo, Stellaria media
Method in brief: (§1)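 Visual rating, 0–100 scale (0 no effect, 100 complete control), vs untreated controls after 13–15 d greenhouse. Pre: seeds in loam/sand, treated at sowing. Post: plants in peat-based mix, 1- to 4-leaf (2–18 cm). Solvent + surfactant formulation, non-phytotoxic.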

[2] = tested on: galium; test: Test C preemergence; type: in vivo, Galium aparine; conditions: for Galium plant response rating: scale 0 to 100 (0 no effect, 100 complete control)
Method in brief: as §1

[3] = tested on: pigweed; test: Test C postemergence; type: in vivo, Amaranthus retroflexus
Method in brief: as §1

[4] = tested on: foxtail, giant; test: Test A preemergence; type: in vivo, Setaria faberii; conditions: preemergence
Method in brief: (§2)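 Seeds were sown in a loam soil–sand blend and given a directed soil spray preemergence; postemergence plants at 2–10 cm, one- to two-leaf stage, were sprayed with compound in non-phytotoxic solvent with surfactant. After about 10 days in a greenhouse, injury was visually rated against untreated controls (0 = no effect, 100 = complete control).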

[5] = tested on: oilseed rape; test: Test C postemergence; type: in vivo, Brassica napus
Method in brief: as §1

[6] = tested on: velvetleaf; test: Test C postemergence; type: in vivo, Abutilon theophrasti
Method in brief: as §1

[7] = tested on: barnyardgrass; test: Test A postemergence; type: in vivo, Echinochloa crus-galli
Method in brief: as §2

[8] = tested on: barnyardgrass; test: Test C postemergence; type: in vivo, Echinochloa crus-galli
Method in brief: as §1

[9] = tested on: corn; test: Test A postemergence; type: in vivo, Zea mays
Method in brief: as §2

[10] = tested on: lambsquarters; test: Test C postemergence; type: in vivo, Chenopodium album
Method in brief: as §1

[11] = tested on: morningglory; test: Test C postemergence; type: in vivo, Ipomoea coccinea
Method in brief: as §1

[12] = tested on: oat, wild; test: Test C postemergence; type: in vivo, Avena fatua
Method in brief: as §1

[13] = tested on: barnyardgrass; test: Test C preemergence; type: in vivo, Echinochloa crus-galli; conditions: for Barnyardgrass plant response rating: scale 0 to 100 (0 no effect, 100 complete control)
Method in brief: as §1

[14] = Postemergence, 31 g ai/ha, visually evaluated after 13 to 15 days
[15] = postemergence, 62 g ai/ha, scale 0 to 100
[16] = postemergence, 250 g ai/ha, scale 0 to 100 (0 no effect, 100 complete control)
[17] = postemergence, 125 g ai/ha, scale 0 to 100, 0 no effect, 100 complete control
[18] = preemergence, 62 g ai/ha, 13 to 15 days
[19] = preemergence, 125 g ai/ha, 13 to 15 days, scale 0 to 100, 0 = no effect, 100 = complete control
[20] = Postemergence, 500 g ai/ha, 0 to 100 scale (0 no effect, 100 complete control)
[21] = postemergence, 125 g ai/ha, about 10 days, visual rating on 0 to 100 scale (0 no effect, 100 complete control)

## CCOc1cc(C(=O)NCC(F)(F)F)nn1Cc1ccnc(OC(F)F)c1 [Compound 128]
[1]; [14]
  Plant response rating (scale of 0 to 100 where 0 is no effect and 100 is complete control), Chickweed: 70
[1]; [15]
  Chickweed plant response rating: 75
[1]; [16]
  Plant response rating, Chickweed: 95
[1]; [17]
  Plant response rating, Chickweed: 85
[2]; Preemergence, 250 g ai/ha
  Plant response rating (scale of 0 to 100), Galium: 100
[2]; preemergence, 31 g ai/ha, visual rating, 13 to 15 days
  Galium plant response rating: 80
[2]; [18]
  Galium plant response rating: 80
[2]; [19]
  Plant response rating, Galium: 100
[3]; [14]
  Plant response rating (scale of 0 to 100 where 0 is no effect and 100 is complete control), Pigweed: 65
[3]; [15]
  Pigweed plant response rating: 70
[3]; [16]
  Plant response rating, Pigweed: 90
[3]; [17]
  Plant response rating, Pigweed: 65
[4]; 125 g ai/ha, visual injury, 0 to 100 scale, approx. 10 days
  Foxtail, Giant plant response rating: 100
[4]; 500 g ai/ha, visual injury after approx. 10 days, 0 to 100 scale (0 no effect, 100 complete control)
  Foxtail, Giant plant response rating: 100
[5]; [14]
  Plant response rating (scale of 0 to 100 where 0 is no effect and 100 is complete control), Oilseed Rape: 50
[5]; [15]
  Oilseed Rape plant response rating: 60
[5]; [16]
  Plant response rating, Oilseed Rape: 90
[5]; [17]
  Plant response rating, Oilseed Rape: 60
[6]; [14]
  Plant response rating (scale of 0 to 100 where 0 is no effect and 100 is complete control), Velvetleaf: 10
[6]; [15]
  Velvetleaf plant response rating: 15
[6]; [16]
  Plant response rating, Velvetleaf: 65
[6]; [17]
  Plant response rating, Velvetleaf: 35
[7]; [20]
  Barnyardgrass plant response rating: 100
[7]; [21]
  Barnyardgrass plant response rating: 100
[8]; [14]
  Plant response rating (scale of 0 to 100 where 0 is no effect and 100 is complete control), Barnyardgrass: 5
[8]; [15]
  Barnyardgrass plant response rating: 5
[8]; [16]
  Plant response rating, Barnyardgrass: 60
[8]; [17]
  Plant response rating, Barnyardgrass: 15
[9]; [20]
  Corn plant response rating: 90
[9]; [21]
  Corn plant response rating: 90
[10]; [14]
  Plant response rating (scale of 0 to 100 where 0 is no effect and 100 is complete control), Lambsquarters: 60
[10]; [15]
  Lambsquarters plant response rating: 80
[10]; [16]
  Plant response rating, Lambsquarters: 98
[10]; [17]
  Plant response rating, Lambsquarters: 95
[11]; [14]
  Plant response rating (scale of 0 to 100 where 0 is no effect and 100 is complete control), Morningglory: 75
[11]; [15]
  Morningglory plant response rating: 65
[11]; [16]
  Plant response rating, Morningglory: 80
[11]; [17]
  Plant response rating, Morningglory: 45
[12]; [14]
  Plant response rating (scale of 0 to 100 where 0 is no effect and 100 is complete control), Oat, Wild: 5
[12]; [15]
  Oat, Wild plant response rating: 10
[12]; [16]
  Plant response rating, Oat, Wild: 20
[12]; [17]
  Plant response rating, Oat, Wild: 25
[13]; Preemergence, 250 g ai/ha
  Plant response rating (scale of 0 to 100), Barnyardgrass: 100
[13]; preemergence, 31 g ai/ha, 13 to 15 days
  Barnyardgrass plant response rating: 80
[13]; [18]
  Barnyardgrass plant response rating: 90
[13]; [19]
  Plant response rating, Barnyardgrass: 98
